Results: ChEMBL document CHEMBL1135403, “Nanomolar inhibitors of Staphylococcus aureus methionyl tRNA synthetase with potent antibacterial activity against gram-positive pathogens” (J Med Chem, 2002)
pIC50, pKi: −log10 of the molar value. Converted amounts (≈) assume the structure as drawn.

Tests used:
Staphylococcus aureus [1] = assay: In vitro minimum inhibitory activity against Staphylococcus aureus Oxford strain; type: functional
Staphylococcus aureus [2] = assay: In vitro minimum inhibitory activity against Staphylococcus aureus WCUH29 strain; type: functional
Staphylococcus aureus [3] = assay: MIC required to inhibit 90% of the growth of Staphylococcus aureus (n = 31); type: functional
[4] = test system: Staphylococcus epidermidis; assay: MIC required to inhibit 90% of the growth of Staphylococcus epidermidis (n = 10); type: functional
Enterococcus faecium = assay: MIC required to inhibit 90% of the growth of Enterococcus faecium (n = 10); type: functional
Staphylococcus aureus [5] = assay: In vivo efficacy against Staphylococcus aureus WCUH29 in a Groin Abscess infection in rats at a dose of 21 mg/kg; log10 cfu; type: functional
Enterococcus faecalis [6] = assay: MIC required to inhibit 90% of the growth of Enterococcus faecalis (n = 10); type: functional
Nucleic Acid = assay: In vitro inhibitory concentration against tRNA synthetases, in a pyrophosphate exchange assay; type: functional, Staphylococcus aureus
Enterococcus faecalis [7] = assay: In vitro minimum inhibitory activity against Enterococcus faecalis 7 strain; type: functional
Enterococcus faecalis [8] = assay: In vitro minimum inhibitory activity against Enterococcus faecalis 1 strain; type: functional
Staphylococcus aureus [9] = assay: In vitro inhibitory concentration against Staphylococcus aureus Methionyl tRNA synthetase; type: functional
Staphylococcus aureus [10] = assay: In vitro antibacterial activity and competitive kinetics with respect to methionine; type: functional, organism-based
Staphylococcus aureus [11] = assay: In vivo efficacy against Staphylococcus aureus WCUH29 in a Groin Abscess infection in rats at a dose of 50 mg/kg; log10 cfu; type: functional

MIC90 (Staphylococcus aureus [3]) [µg/mL] | MIC90 [4] [µg/mL] | MIC90 (Enterococcus faecium) [µg/mL] | MIC90 (Enterococcus faecalis [6]) [µg/mL] | pIC50 (Nucleic Acid) | Compound | MIC (Staphylococcus aureus [1]) [µg/mL] | MIC (Staphylococcus aureus [2]) [µg/mL] | Bacterial counts (Staphylococcus aureus [5]) | MIC (Enterococcus faecalis [7]) [µg/mL] | MIC (Enterococcus faecalis [8]) [µg/mL] | pIC50 (Staphylococcus aureus [9]) | pKi (Staphylococcus aureus [10]) | Bacterial counts (Staphylococcus aureus [11])
1 (≈ 1.99 µM) | 1 (≈ 1.99 µM) | 0.06 (≈ 0.119 µM) | 0.25 (≈ 0.498 µM) | 8.85 | CCc1cc(I)c2c(c1)C(NCCCNc1cc(=O)c3ccccc3[nH]1)CCN2 (configuration not stated) | 0.25 (≈ 0.498 µM) | 0.25 (≈ 0.498 µM) | 3.9 | 0.125 (≈ 0.249 µM) | < 0.06 |  |  | 
0.5 (≈ 0.988 µM) | 0.5 (≈ 0.988 µM) | < 0.016 | 0.03 (≈ 0.0593 µM) |  | Oc1cc(NCCCNC2CCNc3c(Br)cc(Br)cc32)nc2ccccc12 (configuration not stated) | < 0.06 | 0.125 (≈ 0.247 µM) |  | < 0.06 | < 0.06 | 8.10 |  | 
 |  |  |  |  | O=c1cc(NCCCNCc2ccc(Cl)c(Cl)c2)[nH]c2ccccc12 | 4 (≈ 10.6 µM) | 8 (≈ 21.3 µM) |  | 2 (≈ 5.32 µM) | 2 (≈ 5.32 µM) | 7.80 | 8.30 | 
 |  |  |  |  | CC[C@H]1OC(=O)[C@H](C)[C@@H](O[C@H]2C[C@@](C)(OC)[C@@H](O)[C@H](C)O2)[C@H](C)[C@@H](O[C@@H]2O[C@H](C)C[C@H](N(C)C)[C@H]2O)[C@](C)(O)C[C@@H](C)C(=O)[C@H](C)[C@@H](O)[C@]1(C)O [ERYTHROMYCIN] |  |  |  |  |  |  |  | 3.7
 |  |  |  |  | C/C(=C\C(=O)OCCCCCCCCC(=O)O)C[C@@H]1OC[C@H](C[C@@H]2O[C@H]2[C@@H](C)[C@H](C)O)[C@@H](O)[C@H]1O [MUPIROCIN] |  | 0.25 (≈ 0.499 µM) |  | 64 (≈ 128 µM) | 64 (≈ 128 µM) |  |  | 

Compound | MIC90 (Staphylococcus aureus [3]) [µg/mL] | MIC90 [4] [µg/mL] | MIC90 (Enterococcus faecium) [µg/mL] | MIC90 (Enterococcus faecalis [6]) [µg/mL] | pIC50 (Nucleic Acid) | MIC (Staphylococcus aureus [1]) [µg/mL] | MIC (Staphylococcus aureus [2]) [µg/mL] | Bacterial counts (Staphylococcus aureus [5]) | MIC (Enterococcus faecalis [7]) [µg/mL] | MIC (Enterococcus faecalis [8]) [µg/mL] | pIC50 (Staphylococcus aureus [9]) | pKi (Staphylococcus aureus [10]) | Bacterial counts (Staphylococcus aureus [11])
CC1(C)S[C@@H]2[C@H](NC(=O)[C@H](N)c3ccc(O)cc3)C(=O)N2[C@H]1C(=O)O [AMOXICILLIN] | > 16 | 8 (≈ 21.9 µM) | > 16 | > 16 |  | 0.125 (≈ 0.342 µM) | > 64 |  | 0.5 (≈ 1.37 µM) | 0.5 (≈ 1.37 µM) |  |  | 
